Values quoted from earlier work, collected in patent publication US7642235B2, “Macrocyclic peptides active against the hepatitis C virus” (Boehringer Ingelheim International GmbH, priority 2003, dated 2010).

Tested on: hepatitis C virus
Details: two day clinical trial; Nature (2003) 426, p.186-189

**Q.** Which “viral loads in patients infected with the hepatitis C virus” value does the source give for `COc1ccc2c(O[C@@H]3C[C@H]4C(=O)N[C@]5(C(=O)O)C[C@H]5/C=C\CCCCC[C@H](NC(=O)OC5CCCC5)C(=O)N4C3)cc(-c3csc(NC(C)C)n3)nc2c1` [BILN 2061] here?
**A.** Its value is “effective in rapidly reducing viral loads”.
